Test results as given in publication PMC5607274, “An iterative compound screening contest method for identifying target protein inhibitors using the tyrosine-protein kinase Yes” (Scientific Reports, 2017).

target: T1, human recombinant Yes [a.a. 2–543 (end)] (Homo sapiens, UniProt P07947); assay: ADP-Glo kinase assay, inhibition rates of Yes phosphorylation activity (first and second screening); type: biochemical; conditions: first screening; mean of n = 4 wells; 10 μmol L−1 compound
T1 construct: human recombinant Yes [a.a; 2–543 (end)]; purchased BPS Bioscience 40488
Outline: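 ADP-Glo luminescence measured inhibition of human recombinant Yes (a.a. 2–543) phosphorylation activity. In the first screen, each compound ran in 4 wells and inhibition rates were averaged. The second screen retested hits as compounds dissolved from fresh powder.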

T1 sequence (P07947 2-543): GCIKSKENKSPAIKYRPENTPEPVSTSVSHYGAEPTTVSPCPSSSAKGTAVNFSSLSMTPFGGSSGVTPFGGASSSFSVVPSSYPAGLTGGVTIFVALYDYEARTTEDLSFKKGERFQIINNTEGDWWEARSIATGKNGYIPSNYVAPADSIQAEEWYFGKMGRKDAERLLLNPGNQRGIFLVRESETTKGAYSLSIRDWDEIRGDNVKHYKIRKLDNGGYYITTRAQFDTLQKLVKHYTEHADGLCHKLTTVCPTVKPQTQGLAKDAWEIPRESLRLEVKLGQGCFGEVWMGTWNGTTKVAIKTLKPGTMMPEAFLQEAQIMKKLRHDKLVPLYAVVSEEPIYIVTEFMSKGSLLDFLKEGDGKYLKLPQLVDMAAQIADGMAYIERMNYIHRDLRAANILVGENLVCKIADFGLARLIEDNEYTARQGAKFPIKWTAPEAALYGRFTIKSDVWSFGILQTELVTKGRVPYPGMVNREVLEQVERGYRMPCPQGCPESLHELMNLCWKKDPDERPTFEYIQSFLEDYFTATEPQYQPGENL

Row | Structure (SMILES) | First screening IR (inhibition rate) [%]
1 | CC1(C(=O)N2CCCc3cc(S(=O)(=O)N4CCCC4)ccc32)Cc2ccccc2C(=O)O1 (stereo not drawn) [Compound Z131206652] | -1
2 | COc1ccc(Br)c(C(=O)NCc2ccc(-c3csc(C)n3)cc2)c1 [Compound Z131231284] | -17
3 | O=C(CCc1cnn(-c2ccccc2)c1)Nc1nc2c(s1)CCCC2 [Compound Z131246512] | -5
4 | CC1CCN(c2ccc(NC(C)C(=O)Nc3cccc([N+](=O)[O-])c3)cc2)CC1 (stereo not drawn) [Compound Z132693290] | 26
5 | CCN(C1CCS(=O)(=O)C1)S(C)(=O)=O (stereo not drawn) [Compound Z133704180] | 8
6 | CC(C)CN(C1CCS(=O)(=O)C1)S(C)(=O)=O (stereo not drawn) [Compound Z133987698] | 12
7 | Cl.Oc1ccc(O)c(-c2cc(-c3ccccc3Cl)c3cc(Cl)ccc3n2)c1 [Compound Z134829678] | 25
8 | Cc1ccc(OCCSCc2nc(N)nc(Nc3ccc(F)cc3)n2)cc1 [Compound Z135099694] | 9
9 | CSc1ccc(CSCc2nc(N)nc(Nc3ccc(F)cc3)n2)cc1 [Compound Z135100070] | -6
10 | O=C1NC(c2ccc(OCc3cn4ccccc4n3)cc2)Nc2ccccc21 (stereo not drawn) [Compound Z135163592] | 6
11 | CCn1cc(C(=O)c2cc(Cl)ccc2O)cc1-c1nc2ccccc2c(=O)[nH]1 [Compound Z135358570] | 7
12 | CC1(CCc2ccccc2)NC(=O)N(NC(=O)c2ccc(-n3cnc4ccccc43)cc2)C1=O (stereo not drawn) [Compound Z136752996] | 9
13 | Cc1ccn2cc(C(=O)NCCCn3nc(C)cc3C)nc2c1 [Compound Z137367324] | 2
14 | CCn1c(CNc2ccc3c(C)cc(=O)oc3c2)nc2cc(S(=O)(=O)N3CCCCC3)ccc21 [Compound Z139671368] | -9
15 | NC(=O)C1CCN(C(=O)CNc2cc(Cl)ccc2Sc2ccc(F)cc2)CC1 [Compound Z140497072] | -9
16 | COc1ccccc1-c1nn(-c2ccccc2)cc1C(=O)N1CCN(CC(=O)N2CCCCC2)CC1 [Compound Z145138304] | 15
17 | Cc1ccc(C(CN2CCOCC2)NC(=O)Cn2cnc3sc(-c4ccccc4)cc3c2=O)cc1 (stereo not drawn) [Compound Z146866146] | 6
18 | Cc1ccc(-c2csc3ncn(CC(=O)NC(CN4CCOCC4)c4ccccc4)c(=O)c23)cc1 (stereo not drawn) [Compound Z146890674] | 4
19 | Cc1noc(C)c1COc1cccc(C(=O)N2CCN(Cc3cc(=O)n4ccsc4n3)CC2)c1 [Compound Z147054608] | 14
20 | O=C(NCCCOc1ccccc1F)c1ccc2nc[nH]c2c1 [Compound Z147064724] | 0
21 | CC(C)n1ncc2c(C(=O)N3CCN(CC(=O)N4CCCCC4)CC3)cc(-c3ccccc3)nc21 [Compound Z147118228] | -5

Row | Structure (SMILES) | First screening IR (inhibition rate) [%]
22 | CCCCN(C1CCS(=O)(=O)C1)S(=O)(=O)c1ccc(Cl)c(Cl)c1 (stereo not drawn) [Compound Z147580066] | 30
23 | COc1ccc2c(c1)c(CC(=O)OCc1ncc(Cl)n1C)c(C)n2C(=O)c1ccc(Cl)cc1 [Compound Z148531038] | 0
24 | Cc1ccc(S(=O)(=O)N(C)C2(C)CCS(=O)(=O)C2)cc1C (stereo not drawn) [Compound Z150918412] | 9
25 | CC(Sc1nnc(NCc2ccc(F)cc2)s1)C(=O)N1CCCCCC1 (stereo not drawn) [Compound Z151845340] | 33
26 | CCC(C)N(CC(=O)Nc1cccc(C)c1C)C(=O)COC(=O)c1cc(C(C)=O)cn1C (stereo not drawn) [Compound Z152371002] | -9
27 | Cc1ccc(-n2c(C)nnc2SCC(=O)Nc2c(C#N)c(C)c(C)n2Cc2ccccc2)cc1 [Compound Z152755906] | 5
28 | CCOC(=O)c1c(C)oc2ncn(Cc3cccc(F)c3F)c(=O)c12 [Compound Z154098858] | 2
29 | CN1N=C(C(=O)N2CCN(S(=O)(=O)c3ccccc3C(F)(F)F)CC2)CCC1=O [Compound Z164780402] | 7
30 | O=C1CCc2cc(C(=O)Nc3nnc(SCc4c(Cl)cccc4Cl)s3)ccc2N1 [Compound Z164941068] | -3
31 | Cc1nc(-c2ccc(CNC(=O)Cc3cccc(F)c3)o2)cs1 [Compound Z164951688] | -7
32 | Cc1c(C(=O)N2CCN(C(=O)C3CCS(=O)(=O)C3)CC2)[nH]c2c1C(=O)CC(C)(C)C2 (stereo not drawn) [Compound Z164965524] | 25
33 | CC(=O)c1c[nH]c(C(=O)NCCc2ccc(-c3csc(C)n3)s2)c1 [Compound Z165050208] | 3
34 | O=C(CN1CCN(c2cc(C(=O)N3CCOCC3)c3ccccc3n2)CC1)Nc1ccccc1Cl [Compound Z165229378] | 39
35 | O=C(CN1CCN(c2nc(-c3ccccn3)nc3scc(-c4ccccc4)c23)CC1)N1CCCCC1 [Compound Z165261492] | 13
36 | O=C(CN1CCN(c2nc(-c3cccnc3)nc3scc(-c4ccccc4)c23)CC1)N1CCCCC1 [Compound Z165261498] | 9
37 | COc1ccc(C(N)=O)c(OCc2cc(C)cc(C)c2)c1 [Compound Z165885974] | 4
38 | NC(=O)c1ccc(COC(=O)CCc2ccc3ccccc3n2)c([N+](=O)[O-])c1 [Compound Z166077836] | -4
39 | O=C(CCc1ccc2ccccc2n1)OCCOc1ccc(S(=O)(=O)N2CCOCC2)cc1 [Compound Z166077876] | -20
40 | CNc1snc(C)c1C(=O)OCc1csc(-c2ccc(F)cc2)n1 [Compound Z166256344] | -7
41 | NC(=O)CCN(C(=O)CSc1ncc2ccccn12)c1ccccc1 [Compound Z166362686] | 55
42 | Cl.Oc1c(-c2ccccc2)nc2ccc(Cl)cc2c1-c1ccccc1 [Compound Z166605136] | 8

Row | Structure (SMILES) | First screening IR (inhibition rate) [%]
43 | Cc1cc(C)cc(C(=O)N(c2cc(C)cc(C)c2)C2C=CS(=O)(=O)C2)c1 (stereo not drawn) [Compound Z166605882] | 34
44 | CC1CCC(NS(=O)(=O)c2ccc(N3CCCC(c4nnc5ccccn45)C3)c([N+](=O)[O-])c2)CC1 (stereo not drawn) [Compound Z166704886] | 5
45 | CCN(CC)S(=O)(=O)c1ccc(N2CCc3c(sc(N)c3C#N)C2)c([N+](=O)[O-])c1 [Compound Z166707558] | 1
46 | O=C(CCc1ccc(S(=O)(=O)N2CCCC2)cc1)NCC(c1ccccc1Cl)N1CCCC1 (stereo not drawn) [Compound Z166811416] | -3
47 | O=C(Cc1coc(-c2ccccc2)n1)Nc1ccc2ccccc2n1 [Compound Z167063860] | -6
48 | O=C(NCCCN1CCCCC1)c1cc(-c2ccccc2)nc2c1cnn2Cc1ccncc1 [Compound Z167254296] | -28
49 | COc1cc(C(=O)Nc2ccc3c(c2)NC(=O)C(C)O3)cc2c1OC(C)C2 (stereo not drawn) [Compound Z167364352] | 6
50 | Cc1cccc(OCCCNC(=O)c2ccc3nc[nH]c3c2)c1 [Compound Z168616264] | -4
51 | O=C(CCC1NC(=O)NC1=O)Nc1ccc(Oc2ccccc2Cl)cc1 (stereo not drawn) [Compound Z168726218] | 11
52 | Nc1ncnc2sc3c(c12)CCN(C(=O)c1ccc2c(c1)CCC2)C3 [Compound Z168757250] | 4
53 | CS(=O)(=O)c1ccc(N2CCCC2)c(S(C)(=O)=O)c1 [Compound Z168801896] | 13
54 | COc1cc(C)c(Sc2cnc(NC(=O)c3ccc(CCl)cc3)s2)cc1C(=O)N1CCN(C(C)=O)CC1 [Compound Z168829182] | 64
55 | CN(C)c1nc(N)nc(COc2ccc3cc(Br)ccc3c2)n1 [Compound Z168931562] | 5
56 | COc1ccc2ccc(OCc3nc(N)nc(N(C)C)n3)cc2c1 [Compound Z168975100] | 6
57 | CC(C)=CC1C(C(=O)Nc2c(C)cc(C)cc2C)C1(C)C (stereo not drawn) [Compound Z169558548] | 2
58 | Cc1cc(C(=O)CCC(=O)Nc2nc3c(s2)CN(C)CC3)c(C)s1 [Compound Z169940730] | 5
59 | O=C1CCCCCN1CCCNC(=O)N1CCN(S(=O)(=O)c2c(Cl)cccc2Cl)CC1 [Compound Z183473124] | -3
60 | O=C(Nc1nc2ccccc2[nH]1)c1cc(-c2ccccc2)n[nH]1 [Compound Z184538526] | 3
61 | O=C(NCC1COc2ccccc2O1)c1cccc(OCc2cn3ccccc3n2)c1 (stereo not drawn) [Compound Z185334464] | -12
62 | Cn1ccnc1C(Nc1cnn(Cc2ccccc2)c(=O)c1Cl)c1ccccc1 (stereo not drawn) [Compound Z185383718] | 30

same assay, conditions: second screening, dissolved from fresh powder; n = 4; 10 μmol L−1 compound

Row | Structure (SMILES) | Second screening IR (inhibition rate) [%]
63 | COc1cc(C)c(Sc2cnc(NC(=O)c3ccc(CCl)cc3)s2)cc1C(=O)N1CCN(C(C)=O)CC1 [Compound Z168829182] | 37
